{"source": "patent US10752675B2", "about": "“Compounds for treating the remyelination blockade in diseases associated with the expression of HERV-W envelope protein” (GENEURO S.A., priority 2012, dated 2020)", "key": {"rat OPCs [1]": {"test_system": "rat OPCs", "assay": "3-nitrotyrosine (3-NT) positive rat OPCs after Env stimulation (immunostaining)", "type": "cell-based", "conditions": "for Env dependent formation of 3-NT positive OPCs after pre-incubation: 100 μM for 30 min at 37° C. prior to Env stimulation", "procedure": "Rat oligodendrocyte Precursor Cells (OPCs) were purified as previously described^22. OPCs were either kept in proliferation medium (Sato medium supplemented with 10 ng/ml recombinant human basic fibroblast growth factor and 10 ng/ml recombinant human platelet-derived growth factor-AA; R&D Systems, Wiesbaden-Nordenstadt, Germany), whereas differentiation was initiated by Sato medium supplemented with 0.5% fetal calf serum. Human fetal oligodendrocyte precursor cells (hOPC) and respective media were purchased from 3H Biomedical, Uppsala, Sweden. Recombinant Env was produced and purified by PX-Therapeutics (Grenoble, France) according to QC specifications of GeNeuro (Geneva, Switzerland) that supplied the protein batches. Endotoxin levels were <5 EU/mL as measured by the limulus amebocyte lysate (LAL) test. Env stimulation was carried out using three different approaches using i) recombinant full length Env protein diluted in differentiation medium at 10 ng/ml, 100 ng/ml and 1000 ng/ml, ii) recombinant Env protein coated on cell culture dishes at a surface concentration of 17.53 ng/cm^2 and iii) by seeding OPCs on transfected U343 glioblastoma cells overexpressing Env, respectively. Control stimulation experiments were conducted using the recombinant Env buffer preparation (20 mM histidine, 5% (w/v) sucrose, 0.01% (w/v) polysorbate 20, pH 6.0) at equal dilutions. NO concentration measurements in OPC supernatants were performed using a colorimetric nitric oxide assay kit (Merck-Millipore/Calbiochem, Darmstadt, Germany) and the absorbance was determined at 540 nm using an Anthos plate reader 2001 (Anthos labtec instruments, Salzburg, Austria). OPC morphology assessment was carried out using an anti-04 antibody Merck-Millipore/Chemicon, Darmstadt, Germany) taking into account cell diameter and the degree of process branching. […]"}, "rat OPCs [2]": {"test_system": "rat OPCs", "assay": "Myelin protein (CNPase, MBP) expression of Env stimulated rat OPCs (immunostaining)", "type": "cell-based", "conditions": "100 μM in combination with surface bound recombinant Env for three days", "procedure": "(§1) Rat oligodendrocyte Precursor Cells (OPCs) were purified as previously described^22. OPCs were either kept in proliferation medium (Sato medium supplemented with 10 ng/ml recombinant human basic fibroblast growth factor and 10 ng/ml recombinant human platelet-derived growth factor-AA; R&D Systems, Wiesbaden-Nordenstadt, Germany), whereas differentiation was initiated by Sato medium supplemented with 0.5% fetal calf serum. Human fetal oligodendrocyte precursor cells (hOPC) and respective media were purchased from 3H Biomedical, Uppsala, Sweden. Recombinant Env was produced and purified by PX-Therapeutics (Grenoble, France) according to QC specifications of GeNeuro (Geneva, Switzerland) that supplied the protein batches. Endotoxin levels were <5 EU/mL as measured by the limulus amebocyte lysate (LAL) test. […] NO concentration measurements in OPC supernatants were performed using a colorimetric nitric oxide assay kit (Merck-Millipore/Calbiochem, Darmstadt, Germany) and the absorbance was determined at 540 nm using an Anthos plate reader 2001 (Anthos labtec instruments, Salzburg, Austria). […]"}, "[3]": {"test_system": "MSRV-Env induced EAE in C57BL/6 mice", "assay": "EAE clinical score, Example 3.A (EAE induced with MOG and MSRV-Env)", "type": "in vivo", "conditions": "treatment from day 12 to day 29: GNbAc1 200 μg once, L-NAME 600 μg IP and SMT 1 mg IP every 4 days, DMF 1 mg daily in drinking water", "description": "Pathogen free female C57BL/6 nice (6-8 weeks old) were purchased from the Charles River laboratories and maintained at the animal facilities for one week before immunization. One day before immunization, all mice have been weighed, and then evaluated on the Rotarod Test. Rotarod:\n(§2) Animals were weighed and clinically scored 5 days per week according to the following criteria: 0=no signs; 1=tail paralysis or hyper-reflex of hind limb(s) or unilateral hind limb weakness; 2=bilateral hind limb or forelimb weakness; 3=plus unilateral paralysis or major deficit; 4=complete hind limb or forelimb paralysis; 5=plus partial paralysis or major deficit of opposite limbs; 6=moribund or dead. These were adapted from standard criteria, in order to reflect the more rapid induction of brain and cervical cord lesions with this model.\n(§3) All groups of 6 (six) mice have been first injected s.c. in the neck on day 0 then in the dorsal flanks on day 7 and 14; with 200 μg of MOG/mouse+60 μg of MSRV-Env+IFA.\n(§4) For Groups G to H, the treatments with GNbAc1, L-NAME, SMT and DMF alone or together with GNbAc1 with the doses indicated below, have been initiated on day 12 post immunization when the progression of EAE clinical symptoms was already observed. GNbAc1 humanized antibody was administered once, but L-Name or SMT was administered every 4 days until termination of the study on day 29. Regarding Groups E and H, attributed for the treatment with DMF, we have previously determined the volume of daily water consumption by each mouse and it has been determined that (in our condition), each mouse consumed around 3.5 ml drinking water per day. Thus, on the basis of this measurement, a dose of 1 mg DMF+0.08% Methocel per mouse were added to 3.5 ml drinking water daily.\n350 ng of pertussis toxin (PTX) per animal was injected (i.p.) in all groups on the same day following each immunogen injection, and replicated 2 days later, as usual in EAE protocols in order to facilitate the migration lymphocytes through the blood-brain barrier."}, "rat OPCs [4]": {"test_system": "rat OPCs", "assay": "iNOS expression in cultured rat OPCs stimulated with recombinant Env (quantitative RT-PCR)", "type": "cell-based", "conditions": "2 h pre-incubation (IRAK1/4 inhibitor I 3200 nM; TRIF inhibitory peptide 50 μM; anti-TLR4 antibody 15 μg/ml), then solid recombinant Env 8 h, GAPDH reference", "procedure": "as §1, with “Recombinant Env was produced and purified by PX-Therapeutics (Grenoble, France) according to QC specifications of GeNeuro (Geneva, Switzerland) that supplied the protein batches.” left out\nTranscription Polymerase Chain Reaction RNA purification from cultured cells was performed using the RNeasy procedure (Qiagen, Hilden, Germany). […] Quantitative determination of gene expression levels was performed on a 7900HT sequence detection system (Life Technologies/Applied Biosystems) using Power SybrGreen universal master mix (Life Technologies/Applied Biosystems). […]"}, "[5]": {"test_system": "MSRV-Env induced EAE in C57BL/6 mice", "assay": "Rotarod test, Example 3.A (MSRV-Env induced EAE)", "type": "in vivo", "conditions": "Example 3.A doses, end of study period", "procedure": "9 and 8 days before immunization. Transfer of mice, in their home cages, from the holding room to the experimental room. Mice are habituated to the experimental room for 15 min. During the training period, each mouse was placed on the rotarod at a constant speed (4 rpm) if one mouse was falling, she was back on rotarod, when mice were comfortable on the rotarod, mice were running during 120 sec. All mice were returned to their cage, the speed was increased to 13 rpm and mice were again put on the rotarod for 120 sec. All mice were returned to their cage, the speed was increased to 19 rpm and mice were again put on the rotarod for 120 sec. The experimental-room environment were kept constant between test sessions with respect to temperature, and light intensity.\n1 day before each immunization, mice were transferred in their home cages, from the holding room to the experimental room. Mice were habituated to the experimental room for 15 min. Mice then received two trials at 10 increasing speed levels, ranging from 7 to 40 rpm. Individual delays before falling off the rotarod (for the two trials at each speed level) was recorded until 60 sec. Thus, training and performance on the Rotarod system were determined for each animal.\nThe ROTAROD test results are expressed as kinetics of the mean of individual scores for each group with SEM indicated by bars, for each test day and for each test speed within the discriminating range for neuromotor impairment in present conditions (16 to 29 rpm).\nThey are calculated for each individual mouse, for each test day and for each speed value, as the relative gain or loss of time on Rotarod (before falling), compared to the first test day at the same speed (D-7, before starting the disease induction in relevant groups). The value is calculated as “Time on Rotarod at dayX”−“Time at Day-7 for the same mouse at the same speed”. Figures illustrate the kinetics for the different groups on the whole study period, for representative discriminative speed values when validated to differentiate ill from healthy animals in our conditions (e.g., too high or too low speed values either made healthy ones fall immediately or ill ones capable to sustain a slow movement).\nas §3, §4"}, "rat OPCs [6]": {"test_system": "rat OPCs", "assay": "NO concentration in OPC supernatants (colorimetric nitric oxide assay)", "type": "cell-based", "conditions": "Env stimulated OPCs; data not shown", "procedure": "as §1"}, "[7]": {"test_system": "MSRV-Env induced EAE in C57BL/6 mice", "assay": "EAE clinical score, Example 3.C (GNbAC1 and Sodium Fumarate)", "type": "in vivo", "conditions": "from day 12: GNbAC1 500 μg IP; Sodium Fumarate 10 mg daily in 3.5 ml drinking water; versus isotype control antibody", "description": "as §2"}}, "note": "“Also recorded” adds a separate entry of the source. Where a name gives a salt, the structure may show the parent alone.", "data": [{"compound": "CC(=O)NC(C(=O)O)C(C)(C)SN=O", "note": "(racemic) [SNAP, S-Nitroso-N-acetyl-DL-penicillamine]", "values": [{"measurement": "3-NT positive OPCs, NO donor positive control", "setting": "rat OPCs [1]; SNAP 100 ng/ml", "value": "nitrotyrosinylation of almost all OPCs"}]}, {"compound": "COC(=O)[C@H](N)CCCNC(=N)N[N+](=O)[O-]", "note": "[D-NAME, D-N^G-nitroarginine methyl ester]", "values": [{"measurement": "MBP expression in Env stimulated OPCs (rescue of differentiation block)", "setting": "rat OPCs [2]", "value": "not and not able to rescue myelin expression"}, {"measurement": "Env dependent formation of 3-NT positive OPCs after pre-incubation", "setting": "rat OPCs [1]", "value": "not affected; also recorded: could not abolish the Env dependent 3-NT induction"}]}, {"compound": "COC(=O)/C=C/C(=O)OC", "note": "[DMF, dimethyl fumarate]", "values": [{"measurement": "EAE clinical score kinetics and recovery", "setting": "[3]", "value": "equivalent recovery at the end of the study"}]}, {"compound": "O=C(Nc1nc2ccccc2n1CCN1CCOCC1)c1cccc([N+](=O)[O-])c1", "note": "[IRAK-1/4 inhibitor I, 1-(2-(4-Morpholinyl)ethyl)-2-(3-nitrobenzoylamino)benzimidazole]", "values": [{"measurement": "iNOS expression in presence of Env after pre-incubation with inhibitor", "setting": "rat OPCs [4]", "value": "significantly decreased iNOS expression levels"}, {"measurement": "iNOS expression in presence of Env after pre-incubation with inhibitor", "setting": "rat OPCs [4]; listed as IRAK1/4 inhibitor I", "value": "Reduction of iNOS expression"}]}, {"compound": "COC(=O)[C@@H](N)CCCNC(=N)N[N+](=O)[O-]", "note": "[L-NAME, L-N^G-nitroarginine methyl ester]", "values": [{"measurement": "Time on Rotarod at 26 rpm relative to Day -7", "setting": "[5]", "value": "improved kinetics and outcome"}, {"measurement": "Time on Rotarod at 29 rpm relative to Day -7", "setting": "[5]", "value": "improved kinetics and outcome"}, {"measurement": "MBP expression in Env stimulated OPCs (rescue of differentiation block)", "setting": "rat OPCs [2]", "value": "rescue MBP expression; also recorded: abolishment of the Env-mediated OPC differentiation block"}, {"measurement": "Env dependent formation of 3-NT positive OPCs after pre-incubation", "setting": "rat OPCs [1]", "value": "significantly decreased; also recorded: reduced to control levels"}, {"measurement": "NO production after pre-incubation with L-NAME", "setting": "rat OPCs [6]", "value": "significantly decreased"}, {"measurement": "EAE clinical score kinetics and recovery", "setting": "[3]", "value": "irregular recovery"}, {"measurement": "EAE clinical score kinetics and recovery", "setting": "[3]; listed as L-Name", "value": "lower recovery scores and kinetics than group B"}]}, {"compound": "CSC(=N)N", "note": "[SMT, S-methyl-isothiourea]", "values": [{"measurement": "Time on Rotarod at 23 rpm relative to Day -7", "setting": "[5]", "value": "improved kinetics and outcome"}, {"measurement": "EAE clinical score kinetics and recovery", "setting": "[3]", "value": "irregular recovery; also recorded: lower recovery scores and kinetics than group B"}]}, {"compound": "O=C([O-])/C=C/C(=O)[O-].[Na+].[Na+]", "note": "[Sodium Fumarate, reference compound]", "values": [{"measurement": "EAE clinical score kinetics and endpoint", "setting": "[7]", "value": "did not reveal any significant clinical improvement; also recorded: bad outcome at the end of the study; also recorded: no effect"}]}]}
